Source: PubChem BioAssay (NCI)
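Test compounds were applied to cells in 96-well plates for 48 hours at 5 doses. At the GI50, growth is halved. At the TGI there is no net growth.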

Tests used:
Test in all cases: growth of human tumour cells (NCI), 48 h
[1] = system: NCI-H460 lung
[2] = system: OVCAR-5 ovarian
[3] = system: UACC-62 melanoma
[4] = system: ACHN renal
[5] = system: DU-145 prostate
[6] = system: KM12 colon
[7] = system: UO-31 renal
[8] = system: IGROV1 ovarian
[9] = system: OVCAR-8 ovarian
[10] = system: CAKI-1 renal
[11] = system: SK-MEL-2 melanoma
[12] = system: HCT-15 colon
[13] = system: 786-0 renal
[14] = system: SK-OV-3 ovarian
[15] = system: LOX IMVI melanoma
[16] = system: SF-539 CNS
[17] = system: NCI-H226 lung
[18] = system: MDA-MB-231 breast
[19] = system: M14 melanoma
[20] = system: RXF 393 renal
[21] = system: OVCAR-3 ovarian
[22] = system: HCC-2998 colon
[23] = system: BT-549 breast
[24] = system: SR leukemia
[25] = system: SNB-75 CNS
[26] = system: HT29 colon
[27] = system: MOLT-4 leukemia
[28] = system: SNB-19 CNS
[29] = system: SK-MEL-5 melanoma
[30] = system: MALME-3M melanoma
[31] = system: HS 578T breast
[32] = system: NCI/ADR-RES ovarian
[33] = system: OVCAR-4 ovarian
[34] = system: MDA-MB-435
[35] = system: K-562 leukemia
[36] = system: SF-295 CNS
[37] = system: COLO 205 colon
[38] = system: SN12C renal
[39] = system: SF-268 CNS
[40] = system: EKVX NSCLC
[41] = system: CCRF-CEM leukemia
[42] = system: NCI-H23 lung
[43] = system: UACC-257 melanoma
[44] = system: TK-10 renal
[45] = system: MCF7 breast
[46] = system: HOP-62 NSCLC
[47] = system: RPMI-8226 leukemia
[48] = system: SK-MEL-28 melanoma
[49] = system: NCI-H522 lung
[50] = system: SW-620 colon
[51] = system: A549 NSCLC
[52] = system: U251 CNS
[53] = system: PC-3 prostate
[54] = system: A498 renal
[55] = system: T-47D breast
[56] = system: HOP-92 NSCLC
[57] = system: HCT-116 colon
[58] = system: HL-60(TB) leukemia

CC(C)=CC1=C2C3=C(C(=O)C4(O)Oc5c(C)c6c7c(c5OC24C)[C@@H](C)CC[C@@H]7[C@@H](C)C[C@H]6C=C(C)C)C(C)CCC3C(C)C1 (stereo not given in full)
GI50 [1]: > 100 µM
TGI [1]: > 100 µM
GI50 [2]: > 100 µM
TGI [2]: > 100 µM
GI50 [3]: > 100 µM
TGI [3]: > 100 µM
GI50 [4]: > 100 µM
TGI [4]: > 100 µM
GI50 [5]: > 100 µM
TGI [5]: > 100 µM
GI50 [6]: > 100 µM
TGI [6]: > 100 µM
GI50 [7]: > 100 µM
TGI [7]: > 100 µM
GI50 [8]: > 100 µM
TGI [8]: > 100 µM
GI50 [9]: > 100 µM
TGI [9]: > 100 µM
GI50 [10]: > 100 µM
TGI [10]: > 100 µM
GI50 [11]: > 100 µM
TGI [11]: > 100 µM
GI50 [12]: > 100 µM
TGI [12]: > 100 µM
GI50 [13]: > 100 µM
TGI [13]: > 100 µM
GI50 [14]: > 100 µM
TGI [14]: > 100 µM
GI50 [15]: > 100 µM
TGI [15]: > 100 µM
GI50 [16]: > 100 µM
TGI [16]: > 100 µM
GI50 [17]: > 100 µM
TGI [17]: > 100 µM
GI50 [18]: > 100 µM
TGI [18]: > 100 µM
GI50 [19]: > 100 µM
TGI [19]: > 100 µM
GI50 [20]: > 100 µM
TGI [20]: > 100 µM
GI50 [21]: > 100 µM
TGI [21]: > 100 µM
GI50 [22]: > 100 µM
TGI [22]: > 100 µM
GI50 [23]: > 100 µM
TGI [23]: > 100 µM
GI50 [24]: > 100 µM
TGI [24]: > 100 µM
GI50 [25]: > 100 µM
TGI [25]: > 100 µM
GI50 [26]: > 100 µM
TGI [26]: > 100 µM
GI50 [27]: > 100 µM
TGI [27]: > 100 µM
GI50 [28]: > 100 µM
TGI [28]: > 100 µM
GI50 [29]: > 100 µM
TGI [29]: > 100 µM
GI50 [30]: > 100 µM
TGI [30]: > 100 µM
GI50 [31]: > 100 µM
TGI [31]: > 100 µM
GI50 [32]: > 100 µM
TGI [32]: > 100 µM
GI50 [33]: > 100 µM
TGI [33]: > 100 µM
GI50 [34]: > 100 µM
TGI [34]: > 100 µM
GI50 [35]: > 100 µM
TGI [35]: > 100 µM
GI50 [36]: > 100 µM
TGI [36]: > 100 µM
GI50 [37]: > 100 µM
TGI [37]: > 100 µM
GI50 [38]: > 100 µM
TGI [38]: > 100 µM
GI50 [39]: > 100 µM
TGI [39]: > 100 µM
GI50 [40]: > 100 µM
TGI [40]: > 100 µM
GI50 [41]: > 100 µM
TGI [41]: > 100 µM
GI50 [42]: > 100 µM
TGI [42]: > 100 µM
GI50 [43]: > 100 µM
TGI [43]: > 100 µM
GI50 [44]: > 100 µM
TGI [44]: > 100 µM
GI50 [45]: > 100 µM
TGI [45]: > 100 µM
GI50 [46]: > 100 µM
TGI [46]: > 100 µM
GI50 [47]: > 100 µM
TGI [47]: > 100 µM
GI50 [48]: 8.82 µM
TGI [48]: > 100 µM
GI50 [49]: > 100 µM
TGI [49]: > 100 µM
GI50 [50]: > 100 µM
TGI [50]: > 100 µM
GI50 [51]: > 100 µM
TGI [51]: > 100 µM
GI50 [52]: > 100 µM
TGI [52]: > 100 µM
GI50 [53]: > 100 µM
TGI [53]: > 100 µM

C/C(=C\c1csc(C)n1)[C@@H]1C[C@@H]2O[C@]2(C)CCC[C@H](C)[C@H](O)[C@@H](C)C(=O)C(C)(C)[C@@H](O)CC(=O)O1
TGI [1]: > 100 µM
TGI [54]: 0.116 µM
TGI [2]: > 100 µM
TGI [4]: > 100 µM
TGI [5]: 0.000139 µM
TGI [55]: > 100 µM
TGI [56]: 0.0263 µM
TGI [8]: > 100 µM
TGI [11]: 33.7 µM
TGI [12]: 0.00447 µM
TGI [13]: > 100 µM
TGI [16]: < 0.0001 µM
TGI [20]: 0.00418 µM
TGI [22]: < 0.0001 µM
TGI [24]: < 0.0001 µM
TGI [25]: < 0.0001 µM
TGI [26]: < 0.0001 µM
TGI [57]: > 100 µM
TGI [28]: > 100 µM
TGI [30]: > 100 µM
TGI [58]: < 0.0001 µM
GI50 [33]: 60.1 µM
TGI [33]: > 100 µM
TGI [35]: 0.274 µM
TGI [36]: < 0.0001 µM
TGI [37]: < 0.0001 µM
TGI [38]: > 100 µM
TGI [40]: > 100 µM
TGI [44]: 44.8 µM
TGI [45]: 0.0112 µM
TGI [49]: < 0.0001 µM
TGI [50]: 16.1 µM
TGI [51]: > 100 µM
TGI [53]: > 100 µM
